Assay results taken from patent US20130012519A1, “Biomarker Identifying the Reactivation of STAT3 After Src Inhibition” (BRISTOL-MYERS SQUIBB COMPANY, priority 2006, published 2013).
Entries after “also recorded” stand apart in the source; their conditions may differ.

Tests used:
STAT3 [1] = assay: Western blot / Bioplex phosphoprotein assay, STAT3 activation (pY705-STAT3) in cancer cell lines; conditions: for STAT3 inhibition on addition of JAK inhibitor to dasatinib: JAK inhibitor added to dasatinib; for effect of added inhibitor on STAT3 reactivation by dasatinib: Tu167 cells treated with dasatinib plus the inhibitor; for STAT3 inhibition / re-activation: Tu167 cells treated with one of three SFK inhibitors for 24 hours
wild-type BCR-ABL = conditions: read-out: IC50 against wild-type BCR-ABL; Weisberg et al. 2006; cited from earlier work
[2] = test system: imatinib-resistant BCR-ABL mutants; conditions: number of mutants out of those tested; Weisberg et al. 2006; cited from earlier work
c-Src = biological target: T1, c-Src (Homo sapiens, UniProt P12931); assay: Western blot, c-Src inhibition in cancer cell lines; format: cell-based; conditions: Tu167 cells treated with one of three SFK inhibitors for 24 hours
T1 construct: endogenous in cells; host or cells: fifteen human cancer cell lines (HNSCC incl. Tu167, NSCLC, mesothelioma, squamous skin cancer)

AKT = assay: Western blot, AKT downstream of Src in cancer cell lines; format: cell-based, human
STAT5 = assay: Western blot, STAT5 downstream of Src in cancer cell lines; format: cell-based, human
FAK = assay: Western blot, FAK downstream of Src in cancer cell lines; format: cell-based, human
IGF1R = biological target: T2, IGF1R (Homo sapiens, UniProt P08069); assay: IGF1R activation in cells; format: cell-based; conditions: cells treated with dasatinib
T2 construct: endogenous in cells

IL-6 = assay: Cytokine profiling of cell media (25-plex bead kit), IL-6; format: cell-based, human; conditions: 100 nM dasatinib; serum-free and complete medium; 6 and 24 h
IL-8 = assay: Cytokine profiling of cell media (25-plex bead kit), IL-8; format: cell-based, human; conditions: 100 nM dasatinib; serum-free and complete medium; 6 and 24 h
[3] = test system: 25 human cytokines/chemokines; assay: Cytokine profiling of cell media (25-plex bead kit), other cytokines; format: cell-based; conditions: 100 nM dasatinib; serum-free and complete medium; 6 and 24 h
MAPK [4] = conditions: HNSCC cells treated with dasatinib; Johnson et al. 2005; cited from earlier work
[5] = test system: head and neck squamous carcinoma and non-small cell lung cancer cell lines; conditions: cited from earlier work
STAT3 [6] = conditions: panel of NSCLC cell lines with mutant or wild-type EGFR; literature; cited from earlier work
MAPK [7] = assay: Western blot, MAPK activation in HNSCC cells; conditions: Tu167 cells treated with EGF
[8] = Tu167 cells, 100 nM dasatinib for the indicated times
[9] = all fifteen human cancer cell lines, 100 nM dasatinib, 0-24 h

T1 sequence (P12931 whole entry): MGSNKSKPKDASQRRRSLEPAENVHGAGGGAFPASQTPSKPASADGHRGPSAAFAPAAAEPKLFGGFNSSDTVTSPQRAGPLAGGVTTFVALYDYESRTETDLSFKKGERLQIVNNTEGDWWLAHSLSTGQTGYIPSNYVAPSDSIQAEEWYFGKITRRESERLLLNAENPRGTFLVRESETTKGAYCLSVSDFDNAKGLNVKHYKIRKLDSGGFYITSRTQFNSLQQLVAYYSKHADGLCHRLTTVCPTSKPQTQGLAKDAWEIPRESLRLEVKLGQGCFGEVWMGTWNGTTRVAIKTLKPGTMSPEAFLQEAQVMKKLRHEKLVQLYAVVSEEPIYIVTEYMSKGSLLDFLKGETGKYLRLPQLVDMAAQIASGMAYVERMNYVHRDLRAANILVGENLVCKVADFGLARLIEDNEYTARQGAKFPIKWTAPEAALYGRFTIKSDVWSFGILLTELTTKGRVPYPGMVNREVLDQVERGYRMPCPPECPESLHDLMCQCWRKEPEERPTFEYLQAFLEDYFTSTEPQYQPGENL
T2 sequence (P08069 31-1367): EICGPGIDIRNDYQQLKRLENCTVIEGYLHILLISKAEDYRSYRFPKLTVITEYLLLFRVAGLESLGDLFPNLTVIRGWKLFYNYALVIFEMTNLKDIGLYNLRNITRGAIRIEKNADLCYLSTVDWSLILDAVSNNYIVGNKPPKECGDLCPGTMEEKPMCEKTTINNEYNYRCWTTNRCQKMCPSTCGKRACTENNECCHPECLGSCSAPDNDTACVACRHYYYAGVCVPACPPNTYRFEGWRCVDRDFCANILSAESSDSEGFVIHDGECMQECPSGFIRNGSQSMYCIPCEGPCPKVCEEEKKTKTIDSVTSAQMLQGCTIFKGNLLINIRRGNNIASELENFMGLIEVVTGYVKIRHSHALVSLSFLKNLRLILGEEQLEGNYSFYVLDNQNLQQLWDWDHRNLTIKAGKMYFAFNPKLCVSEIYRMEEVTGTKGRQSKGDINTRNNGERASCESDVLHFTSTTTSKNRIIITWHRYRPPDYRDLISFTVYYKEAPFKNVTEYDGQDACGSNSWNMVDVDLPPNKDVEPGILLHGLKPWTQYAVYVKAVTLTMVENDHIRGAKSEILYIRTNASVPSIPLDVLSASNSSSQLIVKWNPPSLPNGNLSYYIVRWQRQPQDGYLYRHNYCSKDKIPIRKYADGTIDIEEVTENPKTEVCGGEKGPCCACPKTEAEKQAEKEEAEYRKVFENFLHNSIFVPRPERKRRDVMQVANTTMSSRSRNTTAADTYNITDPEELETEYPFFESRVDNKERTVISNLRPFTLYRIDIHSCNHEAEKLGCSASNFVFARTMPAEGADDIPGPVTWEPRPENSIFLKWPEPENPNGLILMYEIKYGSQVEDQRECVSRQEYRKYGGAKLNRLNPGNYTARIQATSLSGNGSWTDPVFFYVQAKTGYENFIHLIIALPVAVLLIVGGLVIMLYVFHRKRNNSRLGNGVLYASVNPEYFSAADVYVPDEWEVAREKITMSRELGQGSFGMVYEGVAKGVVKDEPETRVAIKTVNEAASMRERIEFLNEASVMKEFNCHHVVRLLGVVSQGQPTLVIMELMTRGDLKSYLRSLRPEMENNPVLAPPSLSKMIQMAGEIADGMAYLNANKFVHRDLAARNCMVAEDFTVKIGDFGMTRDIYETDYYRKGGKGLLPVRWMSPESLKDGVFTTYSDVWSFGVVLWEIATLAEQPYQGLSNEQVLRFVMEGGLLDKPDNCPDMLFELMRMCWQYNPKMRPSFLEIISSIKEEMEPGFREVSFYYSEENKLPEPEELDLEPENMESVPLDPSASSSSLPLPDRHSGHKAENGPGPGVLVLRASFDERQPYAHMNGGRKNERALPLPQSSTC

With `N#C/C(=C/c1ccc(O)c(O)c1)C(=O)NCc1ccccc1` [AG490] as the compound, how does the “STAT3 inhibition on addition of JAK inhibitor to dasatinib” value (STAT3 [1]) read?
The value was “sustained inhibition of STAT3”.

Which IC50 (wild-type BCR-ABL) does the source give for `Cc1cn(-c2cc(NC(=O)c3ccc(C)c(Nc4nccc(-c5cccnc5)n4)c3)cc(C(F)(F)F)c2)cn1` [AMN107] here?
Its IC50 is […].

What about the “imatinib-resistant BCR-ABL mutants against which significantly active” value [2] of the same compound?
The value was 32/33.

With `COc1cccc(-c2cc(=O)c3ccccc3o2)c1N` [PD98059] as the compound, how does the “effect of added inhibitor on STAT3 reactivation by dasatinib” value (STAT3 [1]) read?
The value was “no effect on STAT3 reactivation”.

Which results are given for `Cc1ccc(-c2nn(C(C)(C)C)c3ncnc(N)c23)cc1` [PP1]?
c-Src inhibition (c-Src): durable c-Src inhibition; STAT3 inhibition / re-activation (STAT3 [1]; Western blot): not inhibited at 24 hours

What does the source list for `COc1cc(Nc2c(C#N)cnc3cc(OCCCN4CCN(C)CC4)c(OC)cc23)c(Cl)cc1Cl` [SKI606]?
c-Src inhibition (c-Src): durable c-Src inhibition; STAT3 inhibition / re-activation (STAT3 [1]; Western blot): not inhibited at 24 hours

Which results are given for `Cc1nc(Nc2ncc(C(=O)Nc3c(C)cccc3Cl)s2)cc(N2CCN(CCO)CC2)n1` [dasatinib, N-(2-chloro-6-methylphenyl)-2-[[6-[4-(2-hydroxyethyl)-1-piperazinyl]-2-methyl-4-pyrimidinyl]amino]-5-thiazolecarboxamide]?
AKT inhibition (AKT; [8]): durable inhibition; AKT inhibition (AKT; [9]): rapidly and durably inhibited; STATS inhibition (STAT5; [8]): durable inhibition; STATS inhibition (STAT5; [9]): rapidly and durably inhibited; FAK inhibition (FAK; [8]): durable inhibition; FAK inhibition (FAK; [9]): rapidly and durably inhibited; IGF1R activation (IGF1R): nor did dasatinib affect IGF1R activation; IL-6 production (IL-6): decreased; IL-8 production (IL-8): decreased; increase of any of 25 cytokines / growth factors assayed [3]: No cytokine or growth factor assayed was significantly increased; production of IL-1beta, IL-12p40, IL-15, TNF-alpha, interferon-alpha, inducible protein-10, MIG, RANTES, IL-10 [3]: unaffected; MAPK activation (MAPK [4]): transiently activated; effects in cancer cell lines [5]: cytotoxicity, cell cycle arrest and apoptosis; effect of SFK inhibition on STAT3 activation (STAT3 [6]): modest to absent; STAT3 activation (pSTAT3) (STAT3 [1]; 14 of 15 solid tumor cell lines (HNSCC, NSCLC, mesothelioma, squamous skin carcinoma), 100 nM dasatinib, 0-24 h, Western blot): intitally inhibited but levels of pSTAT3 (Y105) returned to or above baseline by 24 h; also recorded: initially inhibited but reactivated by 24 h; STAT3 inhibition / re-activation (STAT3 [1]; Western blot): not inhibited at 24 hours; STAT3 inhibition (STAT3 [1]; Tu167 cells, 100 nM dasatinib for the indicated times, Western blot): not durably inhibited; STAT3 activation in fresh cells by conditioned medium (STAT3 [1]; conditioned medium from Tu167 cells treated with dasatinib for 24 h transferred to fresh cells): did not observe any STAT3 activation

Which “effect of added inhibitor on STAT3 reactivation by dasatinib” value (STAT3 [1]) does the source give for `C#Cc1cccc(Nc2ncnc3cc(OCCOC)c(OCCOC)cc23)c1` [erlotinib] here?
Its value is “did not affect the STAT3 reactivation”.

Which “STAT3 inhibition on addition of JAK inhibitor to dasatinib” value (STAT3 [1]) does the source give for `CC(C)(C)c1nc2c3cc[nH]c(=O)c3c3cc(F)ccc3c2[nH]1` [pyridone 6] here?
Its value is “sustained inhibition of STAT3”.

With “EGF: epidermal growth factor, used to stimulate cells (NSDSECPLSHDGYCLHDGVCMYIEALDKYACNCVVGYIGERCQYRDLKWWELR; UniProt P01133 971-1023, looked up)” as the compound, how does the “MAPK activation on stimulation” value (MAPK [7]) read?
The value was “markedly activated”.

What about the “STAT3 activation on stimulation” value (STAT3 [1]; Tu167 cells treated with EGF) of the same compound?
Its value is “slight increase in STAT3 activation”.

Which “STAT3 activation on stimulation” value (STAT3 [1]; stimulation of cells with insulin-like growth factor) does the source give for insulin-like growth factor here?
The value was “did not lead to significant activation of STAT3”.
